Patent US11352352B2, “Aminopyrimidine compound, preparation method therefor and use thereof” (BEIJING ADAMADLE BIOTECHNOLOGY LIMITED LIABILITY COMPANY, priority 2017, dated 2022)

Experiments:
NCI-H1975 = assay: Cell proliferation inhibition experiment, CellTiter-Glo (CTG) method; format: cell-based; details: for IC50: Homo sapiens, NCI-H1975, 72 h, NCI-H1975 cells, CTG, 3 days; for A-431/NCI-H1975 Selectivity: ratio of A-431 IC50 to NCI-H1975 IC50
How it was run: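 NCI-H1975 cells with viability above 90% by trypan blue were seeded at 90 μL per well in black 96-well plates and incubated overnight at 37° C., 5% CO2. Compounds were added at nine concentrations in triplicate, and viability was measured with CellTiter-Glo luminescence on EnVision. IC50 came from non-linear S-curve fitting in GraphPad Prism 5.0.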

PC-9 = assay: as above; format: cell-based; details: Homo sapiens, PC-9, 72 h, PC-9 cells, 3 days
How it was run: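 Cells in log-phase growth (viability above 90% by trypan blue) were seeded at 90 μL per well in black-walled, clear-bottom 96-well plates and incubated overnight at 37° C., 5% CO2. A T0 plate was read the next day. Test compounds were added at nine concentrations in triplicate with a solvent control. Viability was measured by CellTiter-Glo luminescence on EnVision, and IC50 came from non-linear S-curve fitting in GraphPad Prism 5.0.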

A-431 = assay: as above; format: cell-based; details: Homo sapiens, A-431, 72 h, A-431 cells, 3 days
How it was run: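 CTG luminescence measured after 3-day compound exposure, with a T0 plate read the day after seeding and solvent wells as control. Nine concentrations, 3-fold steps, in triplicate: A-431 from 30 μM, NCI-H1975 and PC-9 from 1.111 μM. IC50 derived by non-linear S-curve regression.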

P-gp = molecular target: T1, P-gp (Homo sapiens, UniProt P08183); assay: P-gp substrate evaluation experiment (MDCKII-MDR1 Transwell drug penetration test); format: in vitro ADME; details: dog, MDCK-MDR1, pH 7.4; read-out: ER (Efflux Ratio)
T1 construct: expressed in transfected cells; host or cells: MDCKII-MDR1 (MDCKII canine kidney cells expressing MDR1)
T1 sequence (P08183 whole entry): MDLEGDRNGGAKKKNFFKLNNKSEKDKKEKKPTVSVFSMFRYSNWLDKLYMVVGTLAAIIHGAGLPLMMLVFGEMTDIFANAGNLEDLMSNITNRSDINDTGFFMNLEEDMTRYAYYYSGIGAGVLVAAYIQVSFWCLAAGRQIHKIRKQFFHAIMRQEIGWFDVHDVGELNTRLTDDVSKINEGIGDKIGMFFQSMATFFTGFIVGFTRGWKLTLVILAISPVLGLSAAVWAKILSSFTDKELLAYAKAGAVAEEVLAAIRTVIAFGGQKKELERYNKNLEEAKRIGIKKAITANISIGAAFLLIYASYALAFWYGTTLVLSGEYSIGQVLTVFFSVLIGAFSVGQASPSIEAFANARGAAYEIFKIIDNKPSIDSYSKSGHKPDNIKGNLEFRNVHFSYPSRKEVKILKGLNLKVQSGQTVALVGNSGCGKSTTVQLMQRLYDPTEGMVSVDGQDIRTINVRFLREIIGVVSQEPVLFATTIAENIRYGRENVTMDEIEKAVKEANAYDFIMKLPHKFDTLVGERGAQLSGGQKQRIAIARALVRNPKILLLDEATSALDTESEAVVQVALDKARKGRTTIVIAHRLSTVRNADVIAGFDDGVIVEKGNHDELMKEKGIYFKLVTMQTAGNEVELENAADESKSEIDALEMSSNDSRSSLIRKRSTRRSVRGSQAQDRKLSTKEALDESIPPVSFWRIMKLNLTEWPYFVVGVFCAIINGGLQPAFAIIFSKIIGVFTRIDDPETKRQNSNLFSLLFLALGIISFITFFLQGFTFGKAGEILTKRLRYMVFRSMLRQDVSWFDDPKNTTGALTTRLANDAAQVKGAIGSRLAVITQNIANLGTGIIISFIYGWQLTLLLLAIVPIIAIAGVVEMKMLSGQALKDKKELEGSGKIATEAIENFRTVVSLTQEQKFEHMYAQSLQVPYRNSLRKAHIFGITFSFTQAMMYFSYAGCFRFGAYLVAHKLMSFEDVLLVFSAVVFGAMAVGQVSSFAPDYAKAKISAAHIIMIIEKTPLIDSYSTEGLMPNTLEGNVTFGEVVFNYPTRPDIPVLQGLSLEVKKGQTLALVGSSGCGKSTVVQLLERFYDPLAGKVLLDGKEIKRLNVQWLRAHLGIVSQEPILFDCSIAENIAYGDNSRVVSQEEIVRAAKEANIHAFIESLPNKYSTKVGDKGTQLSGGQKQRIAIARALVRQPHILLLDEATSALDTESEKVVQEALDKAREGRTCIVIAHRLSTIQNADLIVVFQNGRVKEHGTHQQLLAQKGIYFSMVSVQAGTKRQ
Procedure: P-gp Substrate Evaluation Experiment
Cell Culture • 1) High glucose DMEM medium containing L-glutamine was used and 10% fetal bovine serum, 0.1 mg/mL streptomycin and 0.6 mg/mL penicillin were added. • 2) MDCKII-MDR1 was cultured in a T-75 cell culture bottle. The incubator was set at the condition of 37° C., 5% CO2 and 95% relative humidity. Cells could be inoculated in Transwell when the cell confluence reached 70-90%. • 3) Before cell plant, 50 μL cell culture medium was added to each well in the upper chamber of the Transwell, and […] cell culture medium was added to the lower chamber of the Transwell.
Inoculation of MDCKII-MDR1 Cells • 1) Cell suspension was added to the upper chamber of the 96-well Transwell plate with […] each well, and the final inoculation density was 5.45×10^5 cells/cm^2. • 2) The medium was changed 48 hours after inoculation, the culture was carried out for 4-7 days, and the medium was changed every other day.
Evaluation of Cell Monolayer Integrity • 1) After 4-7 days of culture, MDCKII-MDR1 and MDKII should merge and differentiate completely. At this time, they could be applied to penetration test. • 2) The resistance of cell monolayer was measured by a resistance meter (Millipore, USA) and the resistance of each well was recorded. • 3) After finishing the detection, the Transwell plate was put back into the incubator. • 4) Resistance value was calculated: Resistance measured (ohms)×layer area (cm^2)=TEER value (ohm·cm^2)
If TEER value was less than 42 ohms·cm^2, the well can not be used for penetration testing.
Drug Penetration Test • 1) The MDCKII-MDR1 Transwell plate was taken out from the incubator. The cell monolayer was rinsed with HBSS buffer (25 mM HEPES, pH 7.4) twice and incubated for 30 minutes at 37° C. • 2) The transport rate of compounds from the top to the bottom was determined. […] 70 μL supernatant was drawn, diluted with equal volume of water and then subjected to LC-MS/MS analysis. All samples were prepared in three parallel ways. • 6) The cell monolayer integrity after 2-hour incubation was evaluated by leakage of fluorescent yellow, HBSS (25 mM HEPES, pH 7.4) was used to dilute the stock solution of fluorescent yellow till the final concentration was 100 μM. 100 μL fluorescent yellow solution was added to each well in the upper chamber of the Transwell plate and 300 μL HBSS (25 mM HEPES, pH 7.4) was added to each well in the lower chamber of the Transwell plate. After incubation at 37° C. for 30 minutes, 80 μL solution was drawn respectively from each well in the upper and lower chamber to a new 96-well plate. The fluorescence was determined at 485 nm as excitation wavelength and 530 nm as emission wavelength by using a microplate reader.
Data calculation was carried out through Excel, the apparent permeability index (Papp, cm/s) of compounds was calculated through the formula shown as follow: […]
wherein, the membrane area in the formula is the membrane area of Transwell-96 plate (0.143 cm^2); the unit of incubation time is second (s).
Efflux ratio was calculated through the formula shown as follow: […]

| IC50 (NCI-H1975) [µM] | IC50 (PC-9) [µM] | IC50 (A-431) [µM] | efflux ratio at 2 h (P-gp) | SMILES | A-431/NCI-H1975 Selectivity (NCI-H1975) |
| --- | --- | --- | --- | --- | --- |
| 0.0104 | 0.0091 | 0.216 | 5.79 | C=CC(=O)Nc1cc(Nc2cc(-c3ccc4c(cnn4C)c3)ncn2)c(OC)cc1N1CCC(N(C)C)CC1 [compound 26] | 20.7 |
| 0.0137 | 0.009 | 0.617 | 4.28 | C=CC(=O)Nc1cc(Nc2cc(-c3ccc4c(cnn4C)c3)ncn2)c(OC)cc1N1CC(C)N(C)C(C)C1 (stereo not drawn) [compound 23] | 45.0 |
| 0.0032 | 0.0057 | 0.567 | 18.1 | C=CC(=O)Nc1cc(Nc2cc(-c3ccc4c(cnn4C)c3)ncn2)c(OC)cc1N1CCC(N2CCCC2)CC1 [compound 108] | 177.3 |
| 0.0104 | 0.0117 | 0.983 | 11.4 | C=CC(=O)Nc1cc(Nc2cc(-c3ccc4c(cnn4C)c3)ncn2)c(OC)cc1N1CCC(N2CCN(C3COC3)CC2)CC1 [compound 210] | 94.5 |
| 0.0147 | 0.0153 | 0.921 | 8.98 | C=CC(=O)Nc1cc(Nc2nccc(-c3ccc4c(cnn4C)c3)n2)c(OC)cc1N1CCC(N2CCCC2)CC1 [compound 68] | 62.7 |
| 0.008 | 0.0192 | 0.648 | 2.28 | C=CC(=O)Nc1cc(Nc2cc(-c3ccc4c(cnn4C)c3)ncn2)c(OC)cc1N1CCC(N2C[C@@H](C)O[C@@H](C)C2)CC1 [compound 103] | 81.0 |
| 0.0168 | 0.0123 | 0.946 | 2.17 | C=CC(=O)Nc1cc(Nc2cc(-c3ccc4c(cnn4C)c3)ncn2)c(OC)cc1N(C)CCN(C)C(C)C [compound 138] | 56.3 |
| 0.0068 | 0.0215 | 0.584 | 23.1 | C=CC(=O)Nc1cc(Nc2cc(-c3ccc4c(cnn4C)c3)ncn2)c(OC(F)F)cc1N1CCC(N(CC)CC)CC1 [compound 168] | 85.9 |
| 0.0186 | 0.0163 | 0.954 | 43.9 | C=CC(=O)Nc1c(N(C)CCN(C)C)cc(OC)c(Nc2cc(-c3ccc4cnn(C)c4c3)ncn2)c1F [compound 172] | 51.3 |
| 0.0125 | 0.0127 | 1.02 | 15.8 | C=CC(=O)Nc1cc(Nc2cc(-c3ccc4ncsc4c3)ncn2)c(OC)cc1N1CCN(CCN(C)C)CC1 [compound 250] | 81.9 |
| 0.0056 | 0.0082 | 0.813 | 7.7 | C=CC(=O)Nc1cc(Nc2cc(-c3ccc4c(cnn4C)c3)ncn2)c(OC)cc1N1CCC(N2CCN(C)CC2)CC1 [compound 33] | 145.7 |
| 0.0081 | 0.0121 | 0.773 | 5.87 | C=CC(=O)Nc1cc(Nc2cc(-c3ccc4c(cnn4C)c3)ncn2)c(OC)cc1N1CCC(N2CC(OC)C2)CC1 [compound 206] | 95.4 |
